The source of these data is patent US20230310467A1 (priority 2022, published 2023).

This data set is described as follows: Stability by UV spectroscopy after storage under normal conditions and stress tests. The data set is classed as physicochemical. The following applies: stress / rapid test conditions.

In the case of `CCC(CC)COC(=O)[C@H](C)N[P@](=O)(OC[C@H]1O[C@@](C#N)(c2ccc3c(N)ncnn23)[C@H](O)[C@@H]1O)Oc1ccccc1` [RDV, remdesivir], the “stability of the solution according to UV spectroscopic data” value is “limitedly stable”.
